Results: patent US11766443B2, “Cyclopentathiophene carboxamide derivatives as platelet activating factor receptor antagonists” (Boehringer Ingelheim International GmbH, priority 2021, dated 2023)
Converted amounts (≈) assume the structure as drawn.

Legend:
human PAFR = target: T1, human PAFR (Homo sapiens, UniProt P25105); assay: cellular HTRF IP1 endpoint assay: inhibition of PAFR activation by PAF C-16 ligand; format: cell-based; conditions: HEK293 cells overexpressing human PAFR; PAF ligand 11 nM
T1 construct: expressed in transfected cells; host or cells: HEK293
Experimental: The ability of compounds of formula (I.0) to inhibit the activation of the PAF receptor (PAFR) by the PAF C-16 ligand (PAF) is determined using the following cellular HTRF IP1 assay (IP1 Gq assay kit from Cisbio, Cat. no.: 62IP1APEJ) in assay buffer (1×HBSS, 20 mM Hepes, pH 7.4, 50 mM LiCl and containing 0.1% (w/v) BSA):
HEK293 cells overexpressing human PAFR (produced in-house) are seeded into a Poly-D-Lysine coated 384 well white cell culture microtiter assay plate with lid (15.000 cells per well). Subsequently, the plates are incubated over night at 37° C./5% CO2. On the next day, cells are being washed and subsequently, various concentrations of the test compounds (compounds in 100% DMSO; final concentration of DMSO in wells is 1%) are added to the assay plate via Echo 555 acoustic liquid handler. Plates are then incubated with lid for 90 minutes at 37° C./5% CO2. Thereafter, PAF ligand (Cayman Chemical Company, Item no.: 60900) is added at a final concentration of 11 nM. Plates are then incubated with lid for 60 minutes at 37° C./5% CO2. Then, 5 μl per well of Anti-IP1-Anti body-Cryptate solution and 5 μL per well of IP1-d2 solution are added to all wells of the plate and the plate is incubated for another 60 minutes light protected at room temperature. The emissions at 620 nm and 665 nm (Excitation wavelength: 320 nm) are measured using an Envision Reader (PerkinElmer).

[1] = aqueous solubility in buffer (from DMSO stock, 24 h shaking, LC-UV); conditions: pH 2.2, aqueous buffer, kinetic from dmso stock
Experimental: The aqueous solubility of the test compound is determined by comparing the amount dissolved in buffer to the amount in an ACN/water (1/1) solution. Starting from a 10 mM DMSO stock solution aliquots are diluted with ACN/water (1/1) or buffer, respectively. After 24 h of shaking, the solutions are filtrated and analyzed by LC-UV. The amount dissolved in buffer is compared to the amount in the ACN solution.
Solubility will usually be measured from 0.001 to 0.125 mg/mL at a DMSO concentration of 2.5%. If more than 90% of the compound is dissolved in buffer, the value is marked with “>”.

T1 sequence (P25105 whole entry): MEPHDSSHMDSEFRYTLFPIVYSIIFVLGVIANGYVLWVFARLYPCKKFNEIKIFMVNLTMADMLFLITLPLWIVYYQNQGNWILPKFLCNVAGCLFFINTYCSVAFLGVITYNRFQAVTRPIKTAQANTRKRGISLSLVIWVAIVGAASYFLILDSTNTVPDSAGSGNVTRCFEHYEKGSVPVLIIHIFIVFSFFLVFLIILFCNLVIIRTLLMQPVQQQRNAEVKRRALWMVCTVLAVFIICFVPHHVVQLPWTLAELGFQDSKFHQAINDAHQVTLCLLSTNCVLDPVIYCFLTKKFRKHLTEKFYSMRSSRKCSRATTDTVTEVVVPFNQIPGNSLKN

Row | IC50 (human PAFR) [µM] | solubility at 24 h [1] [mg/mL] | Compound
1 | 0.002 | > 0.105 | Cc1nnc2n1-c1sc3c(c1[C@H](c1ccccc1Cl)NC2)C[C@H](C(=O)N1CC(C)(C)C1)C3 [Example 24]
2 | 0.0038 | 0.106 (≈ 190 µM) | Cc1nnc2n1-c1sc3c(c1[C@H](c1ccccc1Cl)NC2)C[C@H](C(=O)NCc1cccc(C(F)(F)F)n1)C3 [Example 35]
3 | 0.0019 | 0.101 (≈ 192 µM) | Cc1nnc2n1-c1sc3c(c1[C@H](c1ccccc1Cl)NC2)C[C@H](C(=O)NCc1ccc(Cl)cn1)C3 [Example 49]
4 |  | 0.049 (≈ 105 µM) | COc1ccccc1C1NCc2nnc(C)n2-c2sc3c(c21)CC(C(=O)N1CCOCC1)C3 (centres unmarked) [Example 54, 9-(2-Methoxyphenyl)-3-methyl-13-(morpholine-4-carbonyl)-16-thia-2,4,5,8-tetraazatetracyclo[8.6.0.0^2,6.0^11,15]-hexadeca-1(10),3,5,11(15)-tetraene]
5 |  | > 0.11 | Cc1ccccc1[C@H]1NCc2nnc(C)n2-c2sc3c(c21)C[C@H](C(=O)N1CCOCC1)C3 [Example 63, (9R,13S)-3-Methyl-9-(2-methylphenyl)-13-(morpholine-4-carbonyl)-16-thia-2,4,5,8-tetraazatetracyclo[8.6.0.0^2,6.0^11,15]-hexadeca-1(10),3,5,11(15)-tetraene]
6 |  | > 0.126 | Cc1nnc2n1-c1sc3c(c1C(c1ccccc1C(F)(F)F)NC2)CC(C(=O)N1CCOCC1)C3 (centres unmarked) [Example 56, 3-Methyl-13-(morpholine-4-carbonyl)-9-[2-(trifluoromethyl)phenyl]-16-thia-2,4,5,8-tetraazatetracyclo[8.6.0.0^2,6.0^11,15]-hexadeca-1(10),3,5,11(15)-tetraene]
7 |  | > 0.118 | Cc1nnc2n1-c1sc3c(c1C(c1cc(F)cc(F)c1)NC2)CC(C(=O)N1CCOCC1)C3 (centres unmarked) [Example 58, 9-(3,5-Difluorophenyl)-3-methyl-13-(morpholine-4-carbonyl)-16-thia-2,4,5,8-tetraazatetracyclo[8.6.0.0^2,6.0^11,15]-hexadeca-1(10),3,5,11(15)-tetraene]
8 | > 0.322 |  | Cc1nnc2n1-c1sc3c(c1C(c1ccccc1CO)NC2)CC(C(=O)N1CCOCC1)C3 (racemic) [Example 60, {2-[3-Methyl-13-(morpholine-4-carbonyl)-16-thia-2,4,5,8-tetraazatetracyclo[8.6.0.0^2,6.0^11,15]hexadeca-1(10),3,5,11(15)-tetraen-9-yl]phenyl}methanol]
9 | 0.283 |  | Cc1nnc2n1-c1sc3c(c1C(c1ccc(Cl)cc1)NC2)CC(C(=O)N1CCOCC1)C3 (centres unmarked) [Example 52, 9-(4-Chlorophenyl)-3-methyl-13-(morpholine-4-carbonyl)-16-thia-2,4,5,8-tetraazatetracyclo[8.6.0.0^2,6.0^11,15]hexadeca-1(10),3,5,11(15)-tetraene]
10 | > 0.999 |  | CCc1nnc2n1-c1sc3c(c1[C@@H](c1ccccc1Cl)NC2)C[C@@H](C(=O)N1CCOCC1)C3 [Example 71]
11 | > 1 |  | CCc1nnc2n1-c1sc3c(c1[C@H](c1ccccc1Cl)NC2)C[C@@H](C(=O)N1CCOCC1)C3 [Example 70]

Row | Compound | IC50 (human PAFR) [µM] | solubility at 24 h [1] [mg/mL]
12 | CCCN(CCC)C(=O)[C@@H]1Cc2sc3c(c2C1)[C@H](c1ccccc1Cl)NCc1nnc(C)n1-3 [Example 73, (9R,13S)-9-(2-chlorophenyl)-3-methyl-N,N-dipropyl-16-thia-2,4,5,8-tetraazatetracyclo[8.6.0.0^2,6.0^11,15]hexadeca-1(10),3,5,11(15)-tetraene-13-carboxamide] | 0.0007 | > 0.11
13 | Cc1nnc2n1-c1sc3c(c1[C@@H](c1ccccc1)NC2)C[C@@H](C(=O)N1CCOCC1)C3 [Example 75] | > 0.568 | 
14 | Cc1nnc2n1-c1sc3c(c1[C@@H](c1ccccc1)NC2)C[C@H](C(=O)N1CCOCC1)C3 [Example 78] | > 1 | 
15 | Cc1nnc2n1-c1sc3c(c1[C@H](c1ccccc1)NC2)C[C@H](C(=O)N1CCOCC1)C3 [Example 76] | 0.14 | 
16 | Cc1nnc2n1-c1sc3c(c1[C@H](c1ccccc1)NC2)C[C@@H](C(=O)N1CCOCC1)C3 [Example 77] | > 1 | 
